A short description of series [1]: DPPH free radical scavenging (antioxidant) activity. The settings on record: computed on basis of TQ content. Type of series: biochemical. As for the experimental part: Methodology—Antioxidant activity was determined utilizing 2,2-diphenyl-1-picrylhydrazyl (DPPH), which is a stable radical. […] The color turns from purple to yellow as the molar absorption of the DPPH radical at 550 nm is reduced when the odd electron of DPPH radical becomes paired with hydrogen from a free radical scavenging antioxidant to form the reduced DPPH-H. The test samples were dissolved in methanol containing 1% dimethyl sulfoxide and added to microtiter wells in 100 μL aliquots to 100 μL of a 100 μM DPPH solution in methanol. Readings were taken at 10, 30 and 60 minutes following the addition of the test material. Percent inhibition of the DPPH radical by the test material was computed relative to the inhibition of the DPPH radical by the vitamin E analog trolox and tabulated as μmol trolox/g test material.

The subject of another series is Caco-2 monolayers. Description: t10-CLA-induced loss of transepithelial electrical resistance in Caco-2 monolayers. Type of series: cell-based, human. From the text: Caco-2 Cells-The protocol for growing and differentiation the human Caco-2 colon andenocarcinoma cells was a modification of Protocol 3 as described by Yamashita et al. [[…]., and Furuyama, Y. (2002) New and better protocols for a short-term Caco-2 cell culture system, J Pharm Sci 91, 669-679]. Caco-2 Human Colon Adenocarcinoma cells were obtained from ATCC (Rockville, Md.; catalog #HTB-37) and maintained in a growth media: DMEM (Dulbecco's Modified Eagles Medium 1×) containing L-glutamine, glucose; Cellgro catalog #35-010CV with the following additions: (1) Penicillin (5,000 IU/mL)/Streptomycin (5,000 μg/mL) Cellgro catalog #30-001C1, (2) 10% FBS-Fetal Bovine Serum, Characterized; Hyclone catalog #SH30071.3, and (3) 1% NEAA-Non Essential Amino Acids; Cellgro catalog #25-025-CI; cells were cultured at 37 C in a humidified air-5% CO2 atmosphere in T175 flasks. Differentiation of Caco-2 cells to intestinal epithelial cells-BIOCOAT^R HTS Caco-2 Assay System kits (Becton Dickinson, N.J.; catalog #354801) consisting of 24-well fibrillar collagen coated inserts and feeder trays were used in all experiments and plated as follows. Media was removed from the T175 flasks and cells were washed with 10 mLs PBS (phosphate buffered saline 1× without Ca^++, without Mg^++; Cellgro #25-053-CI). PBS was removed and 5 mL of Trypsin/EDTA (1×, 0.25% Trypsin/2.21 mM EDTA in HBSS; Cellgro #25-053-CI) were added to the flask and the flask placed at 37 C until cells were visibly floating, approximately 3-5 minutes. Five mL of growth media were added to the flask to neutralize the trypsin. This solution was then transferred to a sterile 50 mL tube. Eight μL were sampled and placed in a hemocytometer for counting under a microscope. Five-hundred μL of cell solution were placed in the upper chamber of each insert so that the final density per well was at least 6.6×10^5 cells/cm^2. Thirty-five mL of growth media were then added to the feeder tray and plate incubated at 37 C with 5% CO2 and 100% humidity for 20-24 hours. […]

Marks after values point to notes of the source that are not given here.

On to `CC1=CC(=O)C(C(C)C)=CC1=O` [Thymoquinone (Sigma), thymoquinone], for which, in series [1], the “DPPH Reducing Activity” value turned out to be 45.2 μmol Trolox/g TQ. In addition, in the series on Caco-2 monolayers (50 μM t10-CLA stimulus, positive control set to 100, each material at its tabulated concentration (TQ 5.0, NS8 0.11, NS9 0.99, NS10 0.012, NSSpent#2 0.0005 μg TQ equivalents/mL; Spent#1 5 μg/mL)), the “Relative Loss of TEER” value is given as 44.5*. Also, in the series with Caco-2 monolayers (concentrations of Table 7), the “effect on loss of TEER in t10-CLA-stimulated Caco-2 cells” value is listed as “inhibited loss of TEER”.

For the origin of these results see patent US8535740B2, “Compositions from Nigella sativa” (priority 2002, dated 2013).
